Data set [1] can be described thus: Quantitative cytotoxicity assay. The data set is classed as cell-based.
Data set [2] concerns MV-Alaska. The experiment in a line: Dose-response curves based on suppression of viral CPE. In kind it is cell-based, measles virus.
Data set [3] has as its system MV-Ibd. The experiment in a line: Dose-response CPE assay against AS-48-resistant MV strain. Particulars: Measles morbillivirus, read-out: EC50 (MV-Ibd).
In data set [4] the test system is CDV-752. Kind of data set: Dose-response CPE assay, Vero-dogSLAM cells. In kind it is cell-based, canine distemper virus.
For data set [5], the target named is MV H and F envelope glycoproteins (Measles virus, UniProt P08362+P69353). The experiment in a line: cell-based.
Data set [6] relates to HPIV3. The experiment in a line: Dose-response CPE assay, Vero cells. The data set is classed as cell-based, human parainfluenzavirus type 3.
Data set [7] concerns MV-AII-5. Kind of data set: Dose-response CPE assay against AS-136A-adapted MV variant. Particulars: read-out: EC50 (MV-AII-5); MV-Alaska variant adapted to grow in presence of RdRp inhibitor AS-136A; highest concentration assessed 37.5 μM.
Data set [8] has as its system cells. Kind of data set: Quantitative cytotoxicity assay. The data set is classed as cell-based.

MV H and F envelope glycoproteins, sequence (P08362 whole entry): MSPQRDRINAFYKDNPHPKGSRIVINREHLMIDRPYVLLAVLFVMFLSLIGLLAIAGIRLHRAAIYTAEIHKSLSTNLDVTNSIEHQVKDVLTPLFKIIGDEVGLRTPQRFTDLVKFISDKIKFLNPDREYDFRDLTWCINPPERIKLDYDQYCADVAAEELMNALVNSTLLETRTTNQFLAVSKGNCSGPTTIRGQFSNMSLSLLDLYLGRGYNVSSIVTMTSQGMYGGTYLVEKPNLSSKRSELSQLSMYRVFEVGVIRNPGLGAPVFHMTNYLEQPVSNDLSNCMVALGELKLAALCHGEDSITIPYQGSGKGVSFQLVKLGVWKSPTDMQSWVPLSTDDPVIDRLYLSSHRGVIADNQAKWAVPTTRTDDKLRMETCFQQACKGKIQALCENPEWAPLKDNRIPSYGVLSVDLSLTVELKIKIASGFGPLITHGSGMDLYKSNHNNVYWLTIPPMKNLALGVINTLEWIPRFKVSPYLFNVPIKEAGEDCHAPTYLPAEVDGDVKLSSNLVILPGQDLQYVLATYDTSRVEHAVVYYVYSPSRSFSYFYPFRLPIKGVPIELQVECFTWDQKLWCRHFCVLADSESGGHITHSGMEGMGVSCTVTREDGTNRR
MV H and F envelope glycoproteins, sequence (P69353 113-550): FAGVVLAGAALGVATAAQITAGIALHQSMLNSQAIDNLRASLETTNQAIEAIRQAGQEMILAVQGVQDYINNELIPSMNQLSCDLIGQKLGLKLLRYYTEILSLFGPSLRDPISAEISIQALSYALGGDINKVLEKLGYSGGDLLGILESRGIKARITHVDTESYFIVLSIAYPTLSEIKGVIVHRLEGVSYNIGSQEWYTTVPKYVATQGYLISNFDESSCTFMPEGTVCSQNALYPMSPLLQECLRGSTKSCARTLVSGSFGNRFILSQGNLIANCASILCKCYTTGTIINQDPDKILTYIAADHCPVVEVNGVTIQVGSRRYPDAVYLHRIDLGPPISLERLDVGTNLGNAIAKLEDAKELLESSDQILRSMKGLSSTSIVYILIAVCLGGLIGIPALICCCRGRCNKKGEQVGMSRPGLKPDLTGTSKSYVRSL
MV H and F envelope glycoproteins, sequence (P69353 24-112): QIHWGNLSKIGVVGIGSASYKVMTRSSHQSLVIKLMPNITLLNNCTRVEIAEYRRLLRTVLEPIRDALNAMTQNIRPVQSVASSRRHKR

For `O=C(Cc1cccs1)Nc1nc2c(s1)CCCC2` [compound 4256670], the half-maximal cytotoxic concentration (CC50) (commonly the concentration that lowers cell viability or growth by half) at 24 h in data set [1] was around 150 µM. The selectivity ratio in data set [1] was determined as 68. Moreover, the EC50 (commonly the concentration at which the effect is half-maximal) in data set [2] (Measles morbillivirus, 96 h, read-out: EC50 (MV-Alaska)) stood at 2.2 ± 0.3 µM; in data set [3] it was 26.6 ± 9.3 µM; in data set [4] (canine distemper virus, read-out: EC50 (CDV-752)), 3.9 ± 0.2 µM; in data set [5], 22 µM; in data set [6] (Human respirovirus 3, Vero, in Homo sapiens, read-out: EC50 (HPIV3)), 5.8 ± 0.6 µM. Further, in data set [5] (at 5 μM), the “Suppression of reporter expression” value is “did not suppress reporter expression at all”.

`Cc1ccc(N(Cc2ccc(C(=O)NC3CCCCC3)cc2)S(C)(=O)=O)cc1C` [compound 14722514]: the EC50 in data set [7] was 3.6 ± 1.6 µM. Moreover, in data set [8] (24 h, absence of virus, highest concentration assessed 150 μM, averages of two experiments), the CC50 was around 150 µM. Further, in data set [8] (specificity index, CC50 / EC50 against MV-Alaska), the “SI (CC50/EC50)” value is 214. For the same molecule, the “Activity of re-synthesized compound versus original library substance” value in data set [2] (biotesting of chemically re-synthesized compound, data not shown) is recorded as “essentially identical to the original substances stored in the library”. Also, the “EC50 (CDV-752)” value in data set [4] (Vero-dogSLAM cells, highest concentration assessed 37.5 μM) is on record as “no activity detected”. In addition, the “EC50 (HPIV3)” value in data set [6] (Vero cells, highest concentration assessed 37.5 μM) is on record as “no activity detected”.

The record behind these values is article PMC2556223 (Journal of biomolecular screening, 2008).
